Data from ChEMBL document CHEMBL1133617, “Effect of C9-methyl substitution and C8-C9 conformational restriction on antifolate and antitumor activity of classical 5-substituted 2,4-diaminofuro[2,3-d]pyrimidines” (J Med Chem, 2000).

B1: Folylpolyglutamate synthase, mitochondrial (Homo sapiens), Q05932 (protein)
chain: MSRARSHLRAALFLAAASARGITTQVAARRGLSAWPVPQEPSMEYQDAVRMLNTLQTNAGYLEQVKRQRGDPQTQLEAMELYLARSGLQVEDLDRLNIIHVTGTKGKGSTCAFTECILRSYGLKTGFFSSPHLVQVRERIRINGQPISPELFTKYFWRLYHRLEETKDGSCVSMPPYFRFLTLMAFHVFLQEKVDLAVVEVGIGGAYDCTNIIRKPVVCGVSSLGIDHTSLLGDTVEKIAWQKGGIFKQGVPAFTVLQPEGPLAVLRDRAQQISCPLYLCPMLEALEEGGPPLTLGLEGEHQRSNAALALQLAHCWLQRQDRHGAGEPKASRPGLLWQLPLAPVFQPTSHMRLGLRNTEWPGRTQVLRRGPLTWYLDGAHTASSAQACVRWFRQALQGRERPSGGPEVRVLLFNATGDRDPAALLKLLQPCQFDYAVFCPNLTEVSSTGNADQQNFTVTLDQVLLRCLEHQQHWNHLDEEQASPDLWSAPSPEPGGSASLLLAPHPPHTCSASSLVFSCISHALQWISQGRDPIFQPPSPPKGLLTHPVAHSGASILREAAAIHVLVTGSLHLVGGVLKLLEPALSQ

Key:
[1] = ratio of vmax to Km
Thymidylate synthase [2] = molecular target: Thymidylate synthase (Homo sapiens, UniProt P04818); assay: Inhibitory concentration against recombinant human (rh) Thymidylate synthase (TS)
[3] = molecular target: T1, Bifunctional dihydrofolate reductase-thymidylate synthase (Toxoplasma gondii, UniProt Q07422); assay: Inhibitory concentration against Toxoplasma gondii Dihydrofolate reductase
T1 sequence (Q07422 whole entry): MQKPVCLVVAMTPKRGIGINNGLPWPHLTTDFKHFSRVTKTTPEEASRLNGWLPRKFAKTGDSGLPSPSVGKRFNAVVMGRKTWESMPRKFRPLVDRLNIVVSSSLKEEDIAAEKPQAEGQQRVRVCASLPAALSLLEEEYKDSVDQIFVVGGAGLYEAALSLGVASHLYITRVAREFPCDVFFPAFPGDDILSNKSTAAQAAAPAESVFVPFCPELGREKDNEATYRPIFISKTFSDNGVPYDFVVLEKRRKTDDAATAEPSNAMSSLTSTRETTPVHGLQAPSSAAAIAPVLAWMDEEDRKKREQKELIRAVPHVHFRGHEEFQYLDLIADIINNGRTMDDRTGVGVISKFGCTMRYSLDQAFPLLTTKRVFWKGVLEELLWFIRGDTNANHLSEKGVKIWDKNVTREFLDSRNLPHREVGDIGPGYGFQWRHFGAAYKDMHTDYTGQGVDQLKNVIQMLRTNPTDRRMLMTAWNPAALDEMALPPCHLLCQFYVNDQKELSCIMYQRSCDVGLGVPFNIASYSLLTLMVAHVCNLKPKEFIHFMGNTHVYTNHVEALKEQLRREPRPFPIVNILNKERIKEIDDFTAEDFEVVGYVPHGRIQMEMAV

[4] = Growth inhibition of MTX-resistant R30dm sublines.; type: functional, Homo sapiens
[5] = Growth inhibition of MTX-resistant R1 sublines.; type: functional, Homo sapiens
Thymidylate synthase [6] = molecular target: Thymidylate synthase (Escherichia coli, UniProt C3SWJ7); assay: Inhibitory concentration against Escherichia coli Thymidylate synthase (TS).
Thymidylate synthase [7] = molecular target: T2, Thymidylate synthase (Lactobacillus casei, UniProt P00469); assay: Inhibitory concentration against Lactobacillus casei Thymidylate synthase (TS).; design: species or system Lacticaseibacillus casei
T2 sequence (P00469 whole entry): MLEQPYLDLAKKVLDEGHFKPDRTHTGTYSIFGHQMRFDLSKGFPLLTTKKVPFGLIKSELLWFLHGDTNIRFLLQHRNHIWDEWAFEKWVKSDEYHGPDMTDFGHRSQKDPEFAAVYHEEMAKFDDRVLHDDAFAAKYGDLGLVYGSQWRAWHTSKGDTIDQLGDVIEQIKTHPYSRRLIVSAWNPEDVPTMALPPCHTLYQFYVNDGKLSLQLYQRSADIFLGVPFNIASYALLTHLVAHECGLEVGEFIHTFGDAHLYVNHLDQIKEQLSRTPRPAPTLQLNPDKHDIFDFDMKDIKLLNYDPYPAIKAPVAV

Dihydrofolate reductase [8] = molecular target: T3, Dihydrofolate reductase (Escherichia coli, UniProt P0ABQ4)
T3 sequence (P0ABQ4 whole entry): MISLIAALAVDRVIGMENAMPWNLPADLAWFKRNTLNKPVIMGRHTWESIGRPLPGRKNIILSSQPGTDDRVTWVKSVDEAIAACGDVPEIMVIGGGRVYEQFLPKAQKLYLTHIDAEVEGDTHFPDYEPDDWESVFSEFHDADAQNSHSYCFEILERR
Description: Inhibitory concentration against Escherichia coli Dihydrofolate reductase

CCRF-CEM = assay: Growth inhibition of CCRF-CEM human leukemia cells.; type: functional, cell-based
FaDu [9] = assay: Growth inhibition of human squamous cell carcinoma FaDu cells during continuous Exposure ([…]); type: functional, cell-based
FaDu [10] = assay: protection of FaDu cells from the growth inhibitory effects by 50 uM of hypoxanthine (HX); type: functional, Homo sapiens; design: scale not given: the % may be the effect or the level left
Dihydrofolate reductase [11] = molecular target: Dihydrofolate reductase (Lactobacillus casei, UniProt P00381); assay: Inhibitory concentration against Lactobacillus casei Dihydrofolate reductase; design: species or system Lacticaseibacillus casei
[12] = Growth inhibition of MTX-resistant R2(Bos) sublines.; type: functional, Homo sapiens
FaDu [13] = assay: protection of FaDu cells from the growth inhibitory effects of the compound.; type: functional, Homo sapiens; design: scale not given: the % may be the effect or the level left
A253 cell line = assay: Growth inhibition of human squamous cell carcinoma A253 cells during continuous Exposure ([…]); type: functional, cell-based
Thymidylate synthase [14] = molecular target: Thymidylate synthase (Rattus norvegicus, UniProt P45352); assay: Inhibitory concentration against rat Thymidylate synthase (TS)
FaDu [15] = assay: protection of FaDu cells from the growth inhibitory effects by 40 uM of thymidine (TdR).; type: functional, Homo sapiens; design: scale not given: the % may be the effect or the level left
FaDu [16] = assay: protection of FaDu cells from the growth inhibitory effects by the combination of 50 uM of hypoxanthine (HX) and 40 uM of thymidine (TdR).; type: functional, Homo sapiens; design: scale not given: the % may be the effect or the level left
Dihydrofolate reductase [17] = molecular target: T4, Dihydrofolate reductase (Homo sapiens, UniProt P00374)
T4 sequence (P00374 whole entry): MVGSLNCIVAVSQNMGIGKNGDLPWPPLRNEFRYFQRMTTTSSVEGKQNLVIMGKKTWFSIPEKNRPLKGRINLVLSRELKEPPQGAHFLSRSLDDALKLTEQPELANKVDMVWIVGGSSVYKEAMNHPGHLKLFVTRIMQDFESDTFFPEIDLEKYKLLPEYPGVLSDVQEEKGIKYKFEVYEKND
Description: Inhibitory concentration against recombinant human (rh) Dihydrofolate reductase

Dihydrofolate reductase [18] = molecular target: T4, Dihydrofolate reductase; assay: Inhibitory activity against Dihydrofolate reductase
FaDu [19] = assay: protection of FaDu cells from the growth inhibitory effects by combination of 50 uM of thymidine (TdR).; type: functional, Homo sapiens; design: scale not given: the % may be the effect or the level left
[20] = substrate: Nc1nc(N)c2nc(CNc3ccc(C(=O)N[C@@H](CCC(=O)O)C(=O)O)cc3)cnc2n1; assay: (§1) Activity as substrate for recombinant human Folyl-polyglutamate synthase (rhFPGS)
[21] = substrate: C/C(=C\c1coc2nc(N)nc(N)c12)c1ccc(C(=O)N[C@@H](CCC(=O)O)C(=O)O)cc1; assay: as §1
[22] = substrate: C/C(=C/c1coc2nc(N)nc(N)c12)c1ccc(C(=O)N[C@@H](CCC(=O)O)C(=O)O)cc1.C/C(=C\c1coc2nc(N)nc(N)c12)c1ccc(C(=O)N[C@@H](CCC(=O)O)C(=O)O)cc1; assay: as §1
[23] = substrate: CC(Cc1coc2nc(N)nc(N)c12)c1ccc(C(=O)N[C@@H](CCC(=O)O)C(=O)O)cc1; assay: as §1
[24] = substrate: Nc1nc(N)c2nc(CNc3ccc(C(=O)N[C@@H](CCC(=O)O)C(=O)O)cc3)cnc2n1; assay: (§2) Activity as substrate for recombinant human Folyl-polyglutamate synthase (rhFPGS) relative to aminopterin.
[25] = substrate: Nc1nc(N)c2c(CCc3ccc(C(=O)N[C@@H](CCC(=O)O)C(=O)O)cc3)coc2n1; assay: as §2
[26] = substrate: C/C(=C\c1coc2nc(N)nc(N)c12)c1ccc(C(=O)N[C@@H](CCC(=O)O)C(=O)O)cc1; assay: as §2
[27] = substrate: C/C(=C/c1coc2nc(N)nc(N)c12)c1ccc(C(=O)N[C@@H](CCC(=O)O)C(=O)O)cc1.C/C(=C\c1coc2nc(N)nc(N)c12)c1ccc(C(=O)N[C@@H](CCC(=O)O)C(=O)O)cc1; assay: as §2
[28] = substrate: CC(Cc1coc2nc(N)nc(N)c12)c1ccc(C(=O)N[C@@H](CCC(=O)O)C(=O)O)cc1; assay: as §2

Thymidylate synthase (Homo sapiens, UniProt P04818), sequence (P04818 whole entry): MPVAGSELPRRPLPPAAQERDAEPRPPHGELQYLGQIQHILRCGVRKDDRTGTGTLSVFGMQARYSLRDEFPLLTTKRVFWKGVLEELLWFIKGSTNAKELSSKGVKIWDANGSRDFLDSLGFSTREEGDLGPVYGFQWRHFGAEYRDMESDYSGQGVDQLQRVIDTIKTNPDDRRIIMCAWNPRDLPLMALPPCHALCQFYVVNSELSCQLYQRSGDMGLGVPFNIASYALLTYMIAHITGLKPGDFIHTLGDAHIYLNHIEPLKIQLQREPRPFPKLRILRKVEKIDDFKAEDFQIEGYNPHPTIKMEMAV
Dihydrofolate reductase (Lactobacillus casei, UniProt P00381), sequence (P00381 whole entry): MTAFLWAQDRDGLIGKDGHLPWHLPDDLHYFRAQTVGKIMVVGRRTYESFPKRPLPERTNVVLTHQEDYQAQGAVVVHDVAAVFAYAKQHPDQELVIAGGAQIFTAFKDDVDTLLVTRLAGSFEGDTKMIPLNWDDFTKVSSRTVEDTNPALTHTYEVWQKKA
Thymidylate synthase (Escherichia coli, UniProt C3SWJ7), sequence (C3SWJ7 whole entry): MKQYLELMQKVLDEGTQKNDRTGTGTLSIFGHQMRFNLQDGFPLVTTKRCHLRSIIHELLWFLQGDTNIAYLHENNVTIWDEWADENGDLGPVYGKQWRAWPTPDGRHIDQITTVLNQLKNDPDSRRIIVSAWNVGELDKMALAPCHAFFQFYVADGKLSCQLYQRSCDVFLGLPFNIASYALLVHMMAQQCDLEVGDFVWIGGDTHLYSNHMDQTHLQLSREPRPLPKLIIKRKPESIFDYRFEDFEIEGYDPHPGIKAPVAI
Thymidylate synthase (Rattus norvegicus, UniProt P45352), sequence (P45352 whole entry): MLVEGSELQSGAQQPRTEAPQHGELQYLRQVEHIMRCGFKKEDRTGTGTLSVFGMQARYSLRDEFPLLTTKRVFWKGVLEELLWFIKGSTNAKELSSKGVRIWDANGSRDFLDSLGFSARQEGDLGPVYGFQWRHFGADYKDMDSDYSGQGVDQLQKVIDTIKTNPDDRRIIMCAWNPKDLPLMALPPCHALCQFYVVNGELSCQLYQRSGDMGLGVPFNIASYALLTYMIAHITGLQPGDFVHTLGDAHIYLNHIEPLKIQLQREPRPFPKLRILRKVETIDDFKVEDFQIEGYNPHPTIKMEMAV

Row | Molecule | Ratio [1] | IC50 (Thymidylate synthase [2]) | IC50 [3] | EC50 [4] | EC50 [5] | IC50 (Thymidylate synthase [6]) | IC50 (Thymidylate synthase [7]) | IC50 (Dihydrofolate reductase [8]) | EC50 (CCRF-CEM) | EC50 (FaDu [9]) | IC50 (Dihydrofolate reductase [11]) | EC50 [12] | EC50 (A253 cell line) | IC50 (Thymidylate synthase [14]) | also measured
1 | Nc1nc(N)c2nc(CNc3ccc(C(=O)N[C@@H](CCC(=O)O)C(=O)O)cc3)cnc2n1 | 0.23 | – | – | – | – | – | – | – | – | – | – | – | – | – | –
2 | Nc1nc(N)c2c(CNc3ccc(C(=O)N[C@@H](CCC(=O)O)C(=O)O)cc3)coc2n1 | – | > 200000 nM | 700 nM | 663 nM | 1520 nM | – | – | – | – | – | – | – | – | – | –
3 | CC(Cc1coc2nc(N)nc(N)c12)c1ccc(C(=O)N[C@@H](CCC(=O)O)C(=O)O)cc1 (some centres undefined) | – | > 360000 nM | 2100 nM | 220 nM | 685 nM | 100000 nM | > 360000 nM | 1100 nM | 29.2 nM | 17.5 nM | 2100 nM | 430 nM | 28.5 nM | > 360000 nM | Control (FaDu [10]): 3.75%; Control (FaDu [13]): 5.75%; Control (FaDu [15]): 8%; Control (FaDu [16]): 105.25%
4 | C/C(=C/c1coc2nc(N)nc(N)c12)c1ccc(C(=O)N[C@@H](CCC(=O)O)C(=O)O)cc1.C/C(=C\c1coc2nc(N)nc(N)c12)c1ccc(C(=O)N[C@@H](CCC(=O)O)C(=O)O)cc1 (mixture of isomers) | 0.05 | > 360000 nM | 4400 nM | 6400 nM | 32000 nM | > 360000 nM | > 360000 nM | 1100 nM | 1180 nM | 1400 nM | 4400 nM | 17000 nM | 700 nM | > 360000 nM | IC50 (Dihydrofolate reductase [17]): 2200 nM
5 | CN(Cc1coc2nc(N)nc(N)c12)c1ccc(C(=O)N[C@@H](CCC(=O)O)C(=O)O)cc1 [FURO[2,3D]PYRIMIDINE ANTIFOLATE] | – | > 200000 nM | 19800 nM | 1030 nM | 807 nM | – | > 200000 nM | – | – | – | 220 nM | – | – | – | –
6 | Nc1nc(N)c2c(CNCc3ccc(C(=O)N[C@@H](CCC(=O)O)C(=O)O)cc3)coc2n1 | – | – | – | – | – | – | – | – | – | – | – | – | – | – | IC50 (Dihydrofolate reductase [18]): 10000 nM
7 | CN(Cc1cnc2nc(N)nc(N)c2n1)c1ccc(C(=O)N[C@@H](CCC(=O)O)C(=O)O)cc1 [METHOTREXATE] | – | – | – | – | 675 nM | – | – | – | – | 11.3 nM | – | 1600 nM | – | – | Control (FaDu [10]): 11.25%; Control (FaDu [13]): 5.75%; Control (FaDu [19]): 102%; Control (FaDu [15]): 9.25%
8 | C/C(=C\c1coc2nc(N)nc(N)c12)c1ccc(C(=O)N[C@@H](CCC(=O)O)C(=O)O)cc1 | 0.15 | > 360000 nM | 110000 nM | – | – | > 360000 nM | > 360000 nM | 11000 nM | 34000 nM | > 10000 nM | 84000 nM | – | > 10000 nM | > 360000 nM | IC50 (Dihydrofolate reductase [17]): 42000 nM
9 | Nc1nc(N)c2c(CCc3ccc(C(=O)N[C@@H](CCC(=O)O)C(=O)O)cc3)coc2n1 | 0.07 | – | – | 425 nM | – | – | – | – | – | – | – | – | – | – | –
10 | B1 | – | – | – | – | – | – | – | – | – | – | – | – | – | – | Km [20]: 4.5 µM; Km [21]: 5.3 µM; Km [22]: 10.3 µM; Km [23]: 1.2 µM; Vmax [24]: 1; Vmax [25]: 0.065; Vmax [26]: 0.76; Vmax [27]: 0.56; Vmax [28]: 0.52
